From publication PMC8911699, “Biological and Cheminformatics Studies of Newly Designed Triazole Based Derivatives as Potent Inhibitors against Mushroom Tyrosinase” (Molecules, 2022)
“Also recorded” adds a separate entry of the source.

Tests used:
mushroom tyrosinase [1] = molecular target: T1, mushroom tyrosinase (Agaricus bisporus, UniProt C7FF04); assay: Mushroom tyrosinase inhibition assay (dopachrome technique, L-DOPA substrate); format: biochemical
Experimental: The inhibition of mushroom tyrosinase was determined by an alteration of the dopachrome technique using L-DOPA as a substrate. The mushroom tyrosinase (EC-232-653-4) was purchased from Sigma Korea. […] After the incubation time, the absorbance was measured at 475 nm using a microplate reader (SpectraMax ABS, Molecular Devices, California, CA, USA) and the inhibition percentage was calculated in relation to the control. […] Each concentration was scrutinized in three independent experiments. IC50 values were calculated by non-linear regression using GraphPad Prism 5.0. The % inhibition of tyrosinase was calculated as follows:Inhibition (%) = [(B−S)/B] ×100 where the B and S are the absorbances of the blank control and normal samples, respectively.
Target sequence in this assay (C7FF04 2-392): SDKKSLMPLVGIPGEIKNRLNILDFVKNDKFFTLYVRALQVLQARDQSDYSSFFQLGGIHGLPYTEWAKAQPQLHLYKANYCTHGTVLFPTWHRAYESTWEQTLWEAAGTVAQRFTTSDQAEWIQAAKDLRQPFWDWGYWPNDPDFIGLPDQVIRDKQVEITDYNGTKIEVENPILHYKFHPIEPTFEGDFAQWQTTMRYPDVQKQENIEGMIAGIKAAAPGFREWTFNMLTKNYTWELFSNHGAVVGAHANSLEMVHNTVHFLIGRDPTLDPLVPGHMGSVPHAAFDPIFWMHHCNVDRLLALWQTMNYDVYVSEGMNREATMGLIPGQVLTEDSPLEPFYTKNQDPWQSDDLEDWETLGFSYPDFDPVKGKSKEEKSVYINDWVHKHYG

mushroom tyrosinase [2] = molecular target: T1, mushroom tyrosinase; assay: Inhibition kinetics (Lineweaver-Burk and secondary plots); format: biochemical; set-up: purchased Sigma Korea EC-232-653-4
Experimental: To understand the inhibitory mechanism of synthetic compounds on tyrosinase, an inhibition kinetic study was performed. […] The kinetic results of the enzyme expressed by the Lineweaver–Burk plot of 1/V versus 1/[S] for different inhibitor concentrations provided a series of straight lines. […] Additionally, the Km value increased with increasing the concentration of the inhibitor. […] The inhibition constant Ki was computed from Figure 4.
A series of experiments were performed to regulate the inhibition kinetics of 9h by following the already reported methods. The inhibitor concentrations for 9h were 0.00, 0.049, 0.098, and 0.196 µM. Substrate (L-DOPA) concentrations were between 0.0625 to 2 mM in all kinetic studies. Pre-incubation and measurement time were the same as discussed in the mushroom tyrosinase inhibition assay protocol. Maximal initial velocity was obtained from the initial linear portion of absorbance up to five minutes after the addition of enzyme at the 30 s interval. The inhibition type of the enzyme was assayed by Lineweaver–Burk plots of the inverse of velocities (1/V) versus the inverse of substrate concentration 1/[S] mM^−1.
Target sequence in this assay (C7FF04 1-392 limits assumed): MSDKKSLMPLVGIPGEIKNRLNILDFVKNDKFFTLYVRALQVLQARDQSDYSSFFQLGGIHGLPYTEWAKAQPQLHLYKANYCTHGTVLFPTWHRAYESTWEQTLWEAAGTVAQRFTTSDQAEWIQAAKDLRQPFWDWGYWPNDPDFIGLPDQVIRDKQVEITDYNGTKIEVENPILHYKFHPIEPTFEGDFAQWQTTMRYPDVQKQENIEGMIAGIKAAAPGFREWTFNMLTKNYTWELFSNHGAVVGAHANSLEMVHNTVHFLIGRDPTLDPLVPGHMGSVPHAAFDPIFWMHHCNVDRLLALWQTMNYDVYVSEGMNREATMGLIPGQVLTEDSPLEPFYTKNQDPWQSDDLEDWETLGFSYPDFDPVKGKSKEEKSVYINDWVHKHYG

Row | SMILES | melting point [°C] | response against mushroom tyrosinase inhibition (in words) (mushroom tyrosinase [1]) | inhibition type (mushroom tyrosinase [2]; Lineweaver-Burk plot, Vmax same, Km increased) | Ki (mushroom tyrosinase [2]; from plot of slope versus inhibitor concentration, L-DOPA 0.0625-2 mM, read-out: inhibition constant Ki) [nM]
1 | O=C(CSc1nnc(-c2ccc(F)cc2)n1-c1ccc(F)cc1)Nc1ccc(F)cc1 [9b, 2-(4,5-Bis(4-fluorophenyl)-4H-1,2,4-triazol-3-ylthio)-N-(4-fluorophenyl) Acetamide] | 195.3 | did not show any response; also recorded: ineffective counter response | – | –
2 | O=C(CSc1nnc(-c2ccc(F)cc2)n1-c1ccc(F)cc1)Nc1ccc(Br)cc1 [9c, 2-(4,5-Bis(4-fluorophenyl)-4H-1,2,4-triazol-3-ylthio)-N-(4-bromophenyl) Acetamide] | 219.3 | did not show any response; also recorded: ineffective counter response | – | –
3 | O=C(CSc1nnc(-c2ccccc2F)n1-c1ccc(F)cc1)Nc1ccc(F)cc1 [9h, N-(4-fluorophenyl)-2-(5-(2-fluorophenyl)-4-(4-fluorophenyl)-4H-1,2,4-triazol-3-ylthio) Acetamide] | – | – | competitively inhibits | 18

Now from value to compound, other results behind:

Row | melting point [°C] | SMILES | response against mushroom tyrosinase inhibition (in words) (mushroom tyrosinase [1]) | inhibition type (mushroom tyrosinase [2]; Lineweaver-Burk plot, Vmax same, Km increased) | Ki (mushroom tyrosinase [2]; from plot of slope versus inhibitor concentration, L-DOPA 0.0625-2 mM, read-out: inhibition constant Ki) [nM]
4 | 206 | O=C(CSc1nnc(-c2ccccc2)n1-c1ccc(F)cc1)Nc1ccccc1 [9d, 2-(4-(4-Fluorophenyl)-5-phenyl-4H-1,2,4-triazol-3-ylthio)-N-phenylacetamide] | – | – | –
5 | 220.1 | O=C(CSc1nnc(-c2ccccc2)n1-c1ccc(F)cc1)Nc1ccc(F)cc1 [9e, N-(4-fluorophenyl)-2-(4-(4-fluorophenyl)-5-phenyl-4H-1,2,4-triazol-3-ylthio) Acetamide] | – | – | –
6 | 248.9 | O=C(CSc1nnc(-c2ccccc2F)n1-c1ccc(F)cc1)Nc1ccc(Br)cc1 [9i, N-(4-bromophenyl)-2-(5-(2-fluorophenyl)-4-(4-fluorophenyl)-4H-1,2,4-triazol-3-ylthio) Acetamide] | did not show any response | – | –
